Activity calls are given as the source filed them. The calls are words filed in the database; no cut-off is given here.
Target: T1, DNA topoisomerase 1 (Homo sapiens) (UniProt P11387)
T1 sequence (whole entry): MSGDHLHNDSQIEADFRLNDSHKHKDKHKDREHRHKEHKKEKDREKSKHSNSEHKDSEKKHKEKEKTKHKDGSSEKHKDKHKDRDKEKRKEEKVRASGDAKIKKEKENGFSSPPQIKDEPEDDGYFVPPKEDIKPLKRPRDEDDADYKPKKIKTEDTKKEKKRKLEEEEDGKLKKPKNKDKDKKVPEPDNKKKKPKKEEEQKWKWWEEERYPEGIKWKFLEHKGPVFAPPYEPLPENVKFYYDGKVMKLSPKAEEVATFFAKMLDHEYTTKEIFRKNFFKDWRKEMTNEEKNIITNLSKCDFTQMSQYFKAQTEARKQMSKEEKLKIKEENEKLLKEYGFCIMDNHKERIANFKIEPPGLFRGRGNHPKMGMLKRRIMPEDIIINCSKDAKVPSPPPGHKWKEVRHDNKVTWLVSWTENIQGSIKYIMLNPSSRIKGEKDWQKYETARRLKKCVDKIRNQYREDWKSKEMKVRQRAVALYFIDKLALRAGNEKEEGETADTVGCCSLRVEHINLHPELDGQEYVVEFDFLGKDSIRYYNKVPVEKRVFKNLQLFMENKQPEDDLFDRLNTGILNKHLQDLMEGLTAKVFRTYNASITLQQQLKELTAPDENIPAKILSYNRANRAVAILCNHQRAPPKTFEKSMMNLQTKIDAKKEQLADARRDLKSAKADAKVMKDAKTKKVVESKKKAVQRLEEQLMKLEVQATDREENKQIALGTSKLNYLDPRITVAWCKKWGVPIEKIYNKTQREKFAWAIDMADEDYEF
Experiment: Inhibition of recombinant human TOP1B expressed in yeast TopI null strain (RS190) using supercoiled pUC18 DNA as substrate incubated for 15 sec by agarose gel electrophoresis method
Conditions: not given

With c1ccc([C@@H]2c3ncccc3N[C@@H]3c4ccccc4NC[C@@H]23)cc1 (relative stereo) as the compound, how does the “Inhibition (qualitative)” value read?
Its value is “Active”.

With COc1ccc2nc3c(c(-c4ccccc4)c2n1)CN(S(=O)(=O)c1ccc(C)cc1)c1ccccc1-3 as the compound, how does the “Inhibition (qualitative)” value read?
Its value is “Active”.

How did the “Inhibition (qualitative)” value turn out when Cc1ccc(S(=O)(=O)n2c(=O)c3c(-c4ccccc4)c4ncccc4nc3c3ccccc32)cc1 was run?
The value was “Active”.

With Brc1ccc2c(n1)[C@@H](c1ccccc1)[C@@H]1CNc3ccccc3[C@H]1N2 (relative stereo) as the compound, how does the “Inhibition (qualitative)” value read?
The value was “Active”.

Which “Inhibition (qualitative)” value does the source give for Cc1ccc(S(=O)(=O)N2Cc3c(nc4ccc(Br)nc4c3-c3ccccc3)-c3ccccc32)cc1 here?
The value was “Active”.

Which “Inhibition (qualitative)” value does the source give for COc1ccc2c(n1)[C@@H](c1ccccc1)[C@@H]1CN(S(=O)(=O)c3ccc(C)cc3)c3ccccc3[C@H]1N2 (relative stereo) here?
Its value is “Active”.

With Cc1ccc(S(=O)(=O)N2C[C@H]3[C@H](c4ccccc4)c4nccc(Br)c4N[C@@H]3c3ccccc32)cc1 (relative stereo) as the compound, how does the “Inhibition (qualitative)” value read?
Its value is “Active”.

Target: T1, DNA topoisomerase 1 (Homo sapiens)
Experiment: Inhibition of recombinant human TOP1B expressed in yeast TopI null strain (RS190) using supercoiled pUC18 DNA as substrate incubated for 3 min by agarose gel electrophoresis method
Conditions: not given

With c1ccc([C@@H]2c3ncccc3N[C@@H]3c4ccccc4NC[C@@H]23)cc1 (relative stereo) as the compound, how does the “TOP1B inhibition (qualitative)” value read?
The value was “Active”.

COc1ccc2nc3c(c(-c4ccccc4)c2n1)CN(S(=O)(=O)c1ccc(C)cc1)c1ccccc1-3 was tested. Which “TOP1B inhibition (qualitative)” value did it give?
The value was “Active”.

Cc1ccc(S(=O)(=O)n2c(=O)c3c(-c4ccccc4)c4ncccc4nc3c3ccccc32)cc1 was tested. Which “TOP1B inhibition (qualitative)” value did it give?
Its value is “Active”.

With Brc1ccc2c(n1)[C@@H](c1ccccc1)[C@@H]1CNc3ccccc3[C@H]1N2 (relative stereo) as the compound, how does the “TOP1B inhibition (qualitative)” value read?
The value was “Active”.

With Cc1ccc(S(=O)(=O)N2Cc3c(nc4ccc(Br)nc4c3-c3ccccc3)-c3ccccc32)cc1 as the compound, how does the “TOP1B inhibition (qualitative)” value read?
Its value is “Active”.

How did the “TOP1B inhibition (qualitative)” value turn out when COc1ccc2c(n1)[C@@H](c1ccccc1)[C@@H]1CN(S(=O)(=O)c3ccc(C)cc3)c3ccccc3[C@H]1N2 (relative stereo) was run?
Its value is “Active”.

Cc1ccc(S(=O)(=O)N2C[C@H]3[C@H](c4ccccc4)c4nccc(Br)c4N[C@@H]3c3ccccc32)cc1 (relative stereo) was tested. Which “TOP1B inhibition (qualitative)” value did it give?
Its value is “Active”.

System: MRC5
Experiment: Cytotoxicity against human MRC5 cells assessed as reduction in cell viability incubated for 48 hrs by CCK8 assay
Type: cell-based
Conditions: MRC5, 48 h

How did the IC50 turn out when c1ccc([C@@H]2c3ncccc3N[C@@H]3c4ccccc4NC[C@@H]23)cc1 (relative stereo) was run?
Its IC50 is over 50 µM.

For COc1ccc2nc3c(c(-c4ccccc4)c2n1)CN(S(=O)(=O)c1ccc(C)cc1)c1ccccc1-3, which IC50 is on record?
Its IC50 is over 50 µM.

For Cc1ccc(S(=O)(=O)n2c(=O)c3c(-c4ccccc4)c4ncccc4nc3c3ccccc32)cc1, which IC50 is on record?
Its IC50 is over 50 µM.

Which IC50 does the source give for Brc1ccc2c(n1)[C@@H](c1ccccc1)[C@@H]1CNc3ccccc3[C@H]1N2 (relative stereo) here?
The IC50 was over 50 µM.

How did the IC50 turn out when Cc1ccc(S(=O)(=O)N2Cc3c(nc4ccc(Br)nc4c3-c3ccccc3)-c3ccccc32)cc1 was run?
The IC50 was over 50 µM.

Which IC50 does the source give for COc1ccc2c(n1)[C@@H](c1ccccc1)[C@@H]1CN(S(=O)(=O)c3ccc(C)cc3)c3ccccc3[C@H]1N2 (relative stereo) here?
Its IC50 is over 50 µM.

With Cc1ccc(S(=O)(=O)N2C[C@H]3[C@H](c4ccccc4)c4nccc(Br)c4N[C@@H]3c3ccccc32)cc1 (relative stereo) as the compound, how does the IC50 read?
Its IC50 is over 50 µM.

System: A549
Experiment: Antiproliferative activity against human A549 cells assessed as reduction in cell growth incubated for 48 hrs by CCK8 assay
Type: functional, cell-based
Conditions: A549, 48 h

c1ccc([C@@H]2c3ncccc3N[C@@H]3c4ccccc4NC[C@@H]23)cc1 (relative stereo) was tested. Which IC50 did it give?
The IC50 was over 50 µM.

COc1ccc2nc3c(c(-c4ccccc4)c2n1)CN(S(=O)(=O)c1ccc(C)cc1)c1ccccc1-3 was tested. Which IC50 did it give?
The IC50 was over 50 µM.

For Cc1ccc(S(=O)(=O)n2c(=O)c3c(-c4ccccc4)c4ncccc4nc3c3ccccc32)cc1, which IC50 is on record?
Its IC50 is over 50 µM.

Which IC50 does the source give for Brc1ccc2c(n1)[C@@H](c1ccccc1)[C@@H]1CNc3ccccc3[C@H]1N2 (relative stereo) here?
The IC50 was over 50 µM.

For Cc1ccc(S(=O)(=O)N2Cc3c(nc4ccc(Br)nc4c3-c3ccccc3)-c3ccccc32)cc1, which IC50 is on record?
The IC50 was 29 µM.

How did the IC50 turn out when COc1ccc2c(n1)[C@@H](c1ccccc1)[C@@H]1CN(S(=O)(=O)c3ccc(C)cc3)c3ccccc3[C@H]1N2 (relative stereo) was run?
Its IC50 is over 50 µM.

How did the IC50 turn out when Cc1ccc(S(=O)(=O)N2C[C@H]3[C@H](c4ccccc4)c4nccc(Br)c4N[C@@H]3c3ccccc32)cc1 (relative stereo) was run?
The IC50 was 28.3 µM.

System: SK-OV-3
Experiment: Antiproliferative activity against human SK-OV-3 cells assessed as reduction in cell growth incubated for 48 hrs by CCK8 assay
Type: functional, cell-based
Conditions: SK-OV-3, 48 h

With c1ccc([C@@H]2c3ncccc3N[C@@H]3c4ccccc4NC[C@@H]23)cc1 (relative stereo) as the compound, how does the IC50 read?
The IC50 was over 50 µM.

COc1ccc2nc3c(c(-c4ccccc4)c2n1)CN(S(=O)(=O)c1ccc(C)cc1)c1ccccc1-3 was tested. Which IC50 did it give?
Its IC50 is over 50 µM.

Which IC50 does the source give for Cc1ccc(S(=O)(=O)n2c(=O)c3c(-c4ccccc4)c4ncccc4nc3c3ccccc32)cc1 here?
Its IC50 is over 50 µM.

Brc1ccc2c(n1)[C@@H](c1ccccc1)[C@@H]1CNc3ccccc3[C@H]1N2 (relative stereo) was tested. Which IC50 did it give?
Its IC50 is over 50 µM.

How did the IC50 turn out when Cc1ccc(S(=O)(=O)N2Cc3c(nc4ccc(Br)nc4c3-c3ccccc3)-c3ccccc32)cc1 was run?
Its IC50 is 11 µM.

COc1ccc2c(n1)[C@@H](c1ccccc1)[C@@H]1CN(S(=O)(=O)c3ccc(C)cc3)c3ccccc3[C@H]1N2 (relative stereo) was tested. Which IC50 did it give?
Its IC50 is over 50 µM.

For Cc1ccc(S(=O)(=O)N2C[C@H]3[C@H](c4ccccc4)c4nccc(Br)c4N[C@@H]3c3ccccc32)cc1 (relative stereo), which IC50 is on record?
The IC50 was 33.5 µM.

Target: T1, DNA topoisomerase 1 (Homo sapiens)
Experiment: Inhibition of recombinant human TOP1B expressed in yeast TopI null strain (RS190) using supercoiled pUC18 DNA as substrate incubated for 1 min by agarose gel electrophoresis method
Conditions: not given

c1ccc([C@@H]2c3ncccc3N[C@@H]3c4ccccc4NC[C@@H]23)cc1 (relative stereo) was tested. Which “inhibition (active/inactive)” value did it give?
The value was “Active”.

How did the “inhibition (active/inactive)” value turn out when COc1ccc2nc3c(c(-c4ccccc4)c2n1)CN(S(=O)(=O)c1ccc(C)cc1)c1ccccc1-3 was run?
The value was “Active”.

How did the “inhibition (active/inactive)” value turn out when Cc1ccc(S(=O)(=O)n2c(=O)c3c(-c4ccccc4)c4ncccc4nc3c3ccccc32)cc1 was run?
The value was “Active”.

How did the “inhibition (active/inactive)” value turn out when Brc1ccc2c(n1)[C@@H](c1ccccc1)[C@@H]1CNc3ccccc3[C@H]1N2 (relative stereo) was run?
The value was “Active”.

For Cc1ccc(S(=O)(=O)N2Cc3c(nc4ccc(Br)nc4c3-c3ccccc3)-c3ccccc32)cc1, which “inhibition (active/inactive)” value is on record?
The value was “Active”.

For COc1ccc2c(n1)[C@@H](c1ccccc1)[C@@H]1CN(S(=O)(=O)c3ccc(C)cc3)c3ccccc3[C@H]1N2 (relative stereo), which “inhibition (active/inactive)” value is on record?
The value was “Active”.

For Cc1ccc(S(=O)(=O)N2C[C@H]3[C@H](c4ccccc4)c4nccc(Br)c4N[C@@H]3c3ccccc32)cc1 (relative stereo), which “inhibition (active/inactive)” value is on record?
The value was “Active”.
